This is an account of results in doi:10.1101/161430v2 (biorxiv, 2019).

pIC50, pKi: −log10 of the molar value.

Data set [1] addresses T1, human carboxylesterase 2 (CES2, hCES2) (Homo sapiens, UniProt O00748).
T1 sequence (O00748 27-559): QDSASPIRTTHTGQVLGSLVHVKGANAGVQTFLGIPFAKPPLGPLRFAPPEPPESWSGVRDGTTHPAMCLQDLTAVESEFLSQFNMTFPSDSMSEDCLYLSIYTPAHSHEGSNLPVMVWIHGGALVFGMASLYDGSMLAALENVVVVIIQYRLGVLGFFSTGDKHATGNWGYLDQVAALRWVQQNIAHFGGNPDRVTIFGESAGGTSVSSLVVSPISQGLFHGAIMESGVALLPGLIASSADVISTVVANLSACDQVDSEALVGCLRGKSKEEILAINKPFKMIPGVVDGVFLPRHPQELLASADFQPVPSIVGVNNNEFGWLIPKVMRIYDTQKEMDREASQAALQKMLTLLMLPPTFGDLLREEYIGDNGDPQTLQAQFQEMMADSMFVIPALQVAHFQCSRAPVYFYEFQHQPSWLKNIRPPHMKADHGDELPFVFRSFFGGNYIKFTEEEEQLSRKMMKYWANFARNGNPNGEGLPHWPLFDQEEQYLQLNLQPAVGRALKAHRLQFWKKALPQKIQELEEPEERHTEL
Kind of data set: biochemical.

In data set [2] the target is T2, human carboxylesterase 1 (CES1, hCES1) (Homo sapiens, UniProt P23141).
T2 sequence (P23141 18-567): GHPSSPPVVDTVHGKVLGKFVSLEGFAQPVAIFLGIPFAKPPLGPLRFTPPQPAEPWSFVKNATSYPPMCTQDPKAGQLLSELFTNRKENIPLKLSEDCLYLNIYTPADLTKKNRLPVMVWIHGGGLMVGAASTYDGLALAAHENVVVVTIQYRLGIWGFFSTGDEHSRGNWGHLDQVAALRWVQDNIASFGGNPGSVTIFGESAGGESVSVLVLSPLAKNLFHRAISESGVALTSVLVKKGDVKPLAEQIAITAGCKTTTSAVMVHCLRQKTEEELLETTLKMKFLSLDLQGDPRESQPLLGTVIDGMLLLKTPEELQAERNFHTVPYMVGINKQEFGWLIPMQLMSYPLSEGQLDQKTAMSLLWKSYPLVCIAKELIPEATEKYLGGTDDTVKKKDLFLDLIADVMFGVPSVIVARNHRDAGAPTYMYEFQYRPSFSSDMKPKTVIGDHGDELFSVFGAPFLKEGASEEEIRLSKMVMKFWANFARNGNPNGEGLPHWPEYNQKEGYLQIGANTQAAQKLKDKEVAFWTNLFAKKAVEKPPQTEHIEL
Kind of data set: biochemical.

For a further data set, the system named is PC3. Kind of data set: in vitro. Conditions: read-out: EC50 cmpd 3.10; human, 48 h.
The nature of data set [3]: in vitro. The following applies: human.
Data set [4] concerns the target T1, human carboxylesterase 2 (CES2, hCES2). As to the kind of experiment: competition with 4-nitrophenyl acetate, […] nm. In kind it is biochemical.
The test system of another data set is HeLa. Kind of data set: in vitro. Conditions: read-out: EC50 viability, 3.10; human, 48 h.
A further data set concerns HT29. As to the kind of experiment: in vitro. The following applies: read-out: EC50 viability, 3.10; human, 48 h.
In the next data set the test system is Colo205. Kind of data set: in vitro. The following applies: read-out: EC50 viability, 3.10; human, 48 h.
Another data set concerns MDA-MB-231. Kind of data set: in vitro. The following applies: read-out: EC50 viability, 3.10; human, 48 h.
In the next data set the test system is HTC116. Kind of data set: in vitro. Conditions: read-out: EC50 viability, 3.10; human, 48 h.
Data set [5] in a line: in vitro. The following applies: human, EC50 viability, 3.10.
In the next data set the test system is H23. Kind of data set: in vitro. The following applies: read-out: EC50 viability, 3.10; human, 48 h.
For data set [6], the target named is T3, human AChE (acetylcholinesterase) (Homo sapiens, UniProt P22303). As to the kind of experiment: biochemical.
The target in data set [7] is T3, human AChE (acetylcholinesterase). Kind of data set: Ellman assay, […] nm. In kind it is biochemical.
The target in data set [8] is T4, human BChE (butyrylcholinesterase, BuChE) (Homo sapiens, UniProt P06276). As to the kind of experiment: biochemical.
Data set [9] deals with T4, human BChE (butyrylcholinesterase, BuChE). Kind of data set: Ellman assay, […] nm. In kind it is biochemical.
The target of data set [10] is T2, human carboxylesterase 1 (CES1, hCES1). As to the kind of experiment: competition with 4-nitrophenyl acetate, […] nm. In kind it is biochemical.

T3 sequence (P22303 32-614): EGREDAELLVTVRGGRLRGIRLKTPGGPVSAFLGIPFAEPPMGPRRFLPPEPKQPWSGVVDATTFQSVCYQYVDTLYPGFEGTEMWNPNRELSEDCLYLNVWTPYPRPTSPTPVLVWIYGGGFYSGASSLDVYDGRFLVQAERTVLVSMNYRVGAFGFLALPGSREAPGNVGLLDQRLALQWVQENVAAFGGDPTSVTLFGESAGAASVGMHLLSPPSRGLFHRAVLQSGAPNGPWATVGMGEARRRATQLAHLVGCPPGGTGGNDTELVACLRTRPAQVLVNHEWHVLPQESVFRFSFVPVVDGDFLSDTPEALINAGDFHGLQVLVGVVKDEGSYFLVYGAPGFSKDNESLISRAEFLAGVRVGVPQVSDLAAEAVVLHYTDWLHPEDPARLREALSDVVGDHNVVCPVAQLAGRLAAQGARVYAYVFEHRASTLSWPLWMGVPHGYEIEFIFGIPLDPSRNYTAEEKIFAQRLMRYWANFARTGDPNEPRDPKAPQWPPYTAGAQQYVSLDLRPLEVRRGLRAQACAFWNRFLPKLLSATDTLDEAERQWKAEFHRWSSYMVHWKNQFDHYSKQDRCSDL
T4 sequence (P06276 29-602): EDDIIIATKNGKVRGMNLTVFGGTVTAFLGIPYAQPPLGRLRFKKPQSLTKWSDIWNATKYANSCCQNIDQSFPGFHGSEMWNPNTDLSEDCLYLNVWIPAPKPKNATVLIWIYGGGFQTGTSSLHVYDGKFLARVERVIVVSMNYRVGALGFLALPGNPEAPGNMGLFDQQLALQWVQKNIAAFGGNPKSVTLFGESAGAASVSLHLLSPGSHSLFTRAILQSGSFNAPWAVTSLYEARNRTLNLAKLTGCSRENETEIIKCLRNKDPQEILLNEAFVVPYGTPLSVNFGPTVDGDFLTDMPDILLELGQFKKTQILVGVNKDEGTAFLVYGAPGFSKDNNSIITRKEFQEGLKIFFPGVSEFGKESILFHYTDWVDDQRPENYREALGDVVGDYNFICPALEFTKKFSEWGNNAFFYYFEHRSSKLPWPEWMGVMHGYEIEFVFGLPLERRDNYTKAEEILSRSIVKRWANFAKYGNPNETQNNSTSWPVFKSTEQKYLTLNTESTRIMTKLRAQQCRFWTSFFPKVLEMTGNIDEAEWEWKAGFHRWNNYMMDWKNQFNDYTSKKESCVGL

In the case of `OB(O)c1cc(Br)cc(Oc2ccccc2)c1` [3.10, compound 3.10], the pIC50 in data set [1] was 8.42; in [2] it was 8.70; in [6] it was 4.64; in data set [8] it was 6.31. Moreover, the CC50 in the data set on PC3, in the data set on HeLa, in the data set with HT29, in the data set on Colo205, in the data set with MDA-MB-231 and in the data set with HTC116 was above 100000 nM in each case. For the same compound, the CC50 in the data set on H23 is above 100000 nM. Besides, the CC50 at 48 h in “in vitro [3]” and in “in vitro [5]” was above 100000 nM in each case. Further, the negative-log Ki (pKi) is 8.68 in data set [4], 5.03 in data set [7], 7.03 in data set [9] and 8.96 in [10].

Regarding `OB(O)c1cc(Br)cc(N2CCCC2)c1` [compound 3], the pIC50 was 7.43 in [1], 8.13 in data set [2] and 4.21 in [6]. This compound also returned a CC50 at 48 h in “in vitro [3]” (263t cells) above 100000 nM. The pKi in data set [4] was 7.68; in [7] it was 4.60; in data set [9], 6.59; in data set [10], 8.39.
